Data published in ChEMBL document CHEMBL1145498, “A systematic interaction map of validated kinase inhibitors with Ser/Thr kinases” (Proc Natl Acad Sci U S A, 2007).

Target: Glycogen synthase kinase-3 beta (Homo sapiens, UniProt P49841)
Sequence (P49841 whole entry, looked up): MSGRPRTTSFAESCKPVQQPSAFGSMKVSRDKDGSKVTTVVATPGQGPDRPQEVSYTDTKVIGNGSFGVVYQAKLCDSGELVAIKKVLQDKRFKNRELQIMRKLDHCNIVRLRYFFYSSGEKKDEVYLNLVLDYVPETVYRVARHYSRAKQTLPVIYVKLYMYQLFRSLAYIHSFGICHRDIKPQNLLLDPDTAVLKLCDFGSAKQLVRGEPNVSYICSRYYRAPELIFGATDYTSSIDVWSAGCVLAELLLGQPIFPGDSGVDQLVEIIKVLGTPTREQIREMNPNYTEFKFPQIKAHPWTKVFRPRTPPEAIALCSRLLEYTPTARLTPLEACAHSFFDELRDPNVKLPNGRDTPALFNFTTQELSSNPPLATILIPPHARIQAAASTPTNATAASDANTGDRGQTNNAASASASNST

ΔTm | SMILES
3.8 °C | CCN(CC)CCNC(=O)c1c(C)[nH]c(/C=C2\C(=O)Nc3ccc(Cl)cc32)c1C [SU-11652]
-0.4 °C | COc1cc(O)c2c(c1)oc(=O)c1c3cc(O)c(O)cc3oc21 [WEDELOLACTONE]

SMILES | ΔTm
C=CNC#N | 0.5 °C

Target: Serine/threonine-protein kinase PAK 5 (Homo sapiens) (UniProt Q9P286)

ΔTm | SMILES
4.7 °C | CCN(CC)CCNC(=O)c1c(C)[nH]c(/C=C2\C(=O)Nc3ccc(Cl)cc32)c1C [SU-11652]
-0.3 °C | COc1cc(O)c2c(c1)oc(=O)c1c3cc(O)c(O)cc3oc21 [WEDELOLACTONE]

SMILES | ΔTm
C=CNC#N | 0.5 °C

Target: Ribosomal protein S6 kinase alpha-3 (Homo sapiens) (UniProt P51812)
Sequence (P51812 whole entry): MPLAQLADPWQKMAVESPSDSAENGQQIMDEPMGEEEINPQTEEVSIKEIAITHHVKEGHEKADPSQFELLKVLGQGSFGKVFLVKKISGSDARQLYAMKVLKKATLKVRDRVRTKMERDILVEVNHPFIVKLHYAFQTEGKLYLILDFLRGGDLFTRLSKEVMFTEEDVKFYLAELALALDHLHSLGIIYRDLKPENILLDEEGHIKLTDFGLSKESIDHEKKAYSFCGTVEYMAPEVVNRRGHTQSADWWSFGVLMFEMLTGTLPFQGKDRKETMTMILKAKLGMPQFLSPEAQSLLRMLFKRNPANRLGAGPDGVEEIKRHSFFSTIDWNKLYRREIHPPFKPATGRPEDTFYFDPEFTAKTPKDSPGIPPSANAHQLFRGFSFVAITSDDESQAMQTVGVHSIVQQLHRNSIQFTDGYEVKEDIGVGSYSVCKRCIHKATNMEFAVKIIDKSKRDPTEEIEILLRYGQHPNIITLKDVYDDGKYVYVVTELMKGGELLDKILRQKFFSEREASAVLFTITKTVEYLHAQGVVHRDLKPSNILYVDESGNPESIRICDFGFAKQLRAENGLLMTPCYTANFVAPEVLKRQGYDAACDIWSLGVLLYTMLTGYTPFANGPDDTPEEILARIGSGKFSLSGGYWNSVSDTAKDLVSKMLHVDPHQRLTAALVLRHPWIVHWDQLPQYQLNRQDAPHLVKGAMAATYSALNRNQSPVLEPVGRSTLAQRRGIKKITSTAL

ΔTm | SMILES
6.8 °C | CCN(CC)CCNC(=O)c1c(C)[nH]c(/C=C2\C(=O)Nc3ccc(Cl)cc32)c1C [SU-11652]
1 °C | COc1cc(O)c2c(c1)oc(=O)c1c3cc(O)c(O)cc3oc21 [WEDELOLACTONE]

SMILES | ΔTm
C=CNC#N | 1 °C

Target: Dual specificity protein kinase CLK1 (Homo sapiens) (UniProt P49759)
Sequence (P49759 whole entry, looked up): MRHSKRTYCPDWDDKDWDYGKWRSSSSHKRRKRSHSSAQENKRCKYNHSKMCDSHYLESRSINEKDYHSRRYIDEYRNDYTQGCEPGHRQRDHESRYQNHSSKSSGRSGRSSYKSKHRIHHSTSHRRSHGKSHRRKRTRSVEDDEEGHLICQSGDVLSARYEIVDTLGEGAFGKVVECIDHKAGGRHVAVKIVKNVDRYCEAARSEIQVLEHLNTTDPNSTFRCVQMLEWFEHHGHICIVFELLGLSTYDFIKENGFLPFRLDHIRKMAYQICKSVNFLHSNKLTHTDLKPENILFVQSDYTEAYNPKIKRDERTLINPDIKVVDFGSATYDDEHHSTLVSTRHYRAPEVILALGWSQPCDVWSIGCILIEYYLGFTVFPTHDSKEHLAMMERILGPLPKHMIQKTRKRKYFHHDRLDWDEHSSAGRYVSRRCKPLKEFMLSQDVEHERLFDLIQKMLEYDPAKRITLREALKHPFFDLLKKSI

ΔTm | SMILES
6.6 °C | CCN(CC)CCNC(=O)c1c(C)[nH]c(/C=C2\C(=O)Nc3ccc(Cl)cc32)c1C [SU-11652]
2.6 °C | COc1cc(O)c2c(c1)oc(=O)c1c3cc(O)c(O)cc3oc21 [WEDELOLACTONE]

SMILES | ΔTm
C=CNC#N | 0.8 °C

Target: Calcium/calmodulin-dependent protein kinase type 1D (Homo sapiens) (UniProt Q8IU85)

ΔTm | SMILES
2.6 °C | CCN(CC)CCNC(=O)c1c(C)[nH]c(/C=C2\C(=O)Nc3ccc(Cl)cc32)c1C [SU-11652]
1.1 °C | COc1cc(O)c2c(c1)oc(=O)c1c3cc(O)c(O)cc3oc21 [WEDELOLACTONE]

SMILES | ΔTm
C=CNC#N | 0.7 °C

Target: Mitogen-activated protein kinase 11 (Homo sapiens, UniProt Q15759)

ΔTm | SMILES
-0.4 °C | CCN(CC)CCNC(=O)c1c(C)[nH]c(/C=C2\C(=O)Nc3ccc(Cl)cc32)c1C [SU-11652]
1.5 °C | COc1cc(O)c2c(c1)oc(=O)c1c3cc(O)c(O)cc3oc21 [WEDELOLACTONE]

SMILES | ΔTm
C=CNC#N | -0.1 °C

Target: Serine/threonine-protein kinase 25 (Homo sapiens) (UniProt O00506)

ΔTm | SMILES
7.4 °C | CCN(CC)CCNC(=O)c1c(C)[nH]c(/C=C2\C(=O)Nc3ccc(Cl)cc32)c1C [SU-11652]
2.7 °C | COc1cc(O)c2c(c1)oc(=O)c1c3cc(O)c(O)cc3oc21 [WEDELOLACTONE]

SMILES | ΔTm
C=CNC#N | 0.4 °C

Target: Cyclin-dependent kinase-like 1 (Homo sapiens) (UniProt Q00532)
Sequence (Q00532 whole entry): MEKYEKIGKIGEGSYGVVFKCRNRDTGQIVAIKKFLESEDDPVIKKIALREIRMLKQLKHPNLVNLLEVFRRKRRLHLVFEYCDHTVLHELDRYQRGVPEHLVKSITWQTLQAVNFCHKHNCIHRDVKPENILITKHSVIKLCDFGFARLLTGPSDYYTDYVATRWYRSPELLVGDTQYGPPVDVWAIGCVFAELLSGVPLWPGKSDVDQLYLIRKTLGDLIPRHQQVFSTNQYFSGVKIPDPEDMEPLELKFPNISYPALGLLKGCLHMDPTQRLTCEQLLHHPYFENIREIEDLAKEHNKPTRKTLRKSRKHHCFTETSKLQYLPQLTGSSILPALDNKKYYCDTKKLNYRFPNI

ΔTm | SMILES
0.2 °C | CCN(CC)CCNC(=O)c1c(C)[nH]c(/C=C2\C(=O)Nc3ccc(Cl)cc32)c1C [SU-11652]
-0.3 °C | COc1cc(O)c2c(c1)oc(=O)c1c3cc(O)c(O)cc3oc21 [WEDELOLACTONE]

SMILES | ΔTm
C=CNC#N | -0.1 °C

Target: Cyclin-dependent kinase 6 (Homo sapiens) (UniProt Q00534)
Sequence (Q00534 whole entry): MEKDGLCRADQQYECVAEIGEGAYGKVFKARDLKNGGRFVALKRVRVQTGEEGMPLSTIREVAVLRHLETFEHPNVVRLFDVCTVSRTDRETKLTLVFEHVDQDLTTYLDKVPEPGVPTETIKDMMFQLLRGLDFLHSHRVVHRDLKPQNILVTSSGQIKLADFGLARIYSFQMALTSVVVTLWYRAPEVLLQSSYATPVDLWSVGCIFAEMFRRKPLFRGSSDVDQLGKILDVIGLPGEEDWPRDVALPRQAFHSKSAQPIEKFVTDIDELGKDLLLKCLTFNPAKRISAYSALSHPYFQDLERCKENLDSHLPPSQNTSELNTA

ΔTm | SMILES
2 °C | CCN(CC)CCNC(=O)c1c(C)[nH]c(/C=C2\C(=O)Nc3ccc(Cl)cc32)c1C [SU-11652]
0.6 °C | COc1cc(O)c2c(c1)oc(=O)c1c3cc(O)c(O)cc3oc21 [WEDELOLACTONE]

SMILES | ΔTm
C=CNC#N | 0.1 °C

Target: T1, Serine/threonine-protein kinase PLK4 (Homo sapiens) (UniProt O00444)
T1 sequence (whole entry): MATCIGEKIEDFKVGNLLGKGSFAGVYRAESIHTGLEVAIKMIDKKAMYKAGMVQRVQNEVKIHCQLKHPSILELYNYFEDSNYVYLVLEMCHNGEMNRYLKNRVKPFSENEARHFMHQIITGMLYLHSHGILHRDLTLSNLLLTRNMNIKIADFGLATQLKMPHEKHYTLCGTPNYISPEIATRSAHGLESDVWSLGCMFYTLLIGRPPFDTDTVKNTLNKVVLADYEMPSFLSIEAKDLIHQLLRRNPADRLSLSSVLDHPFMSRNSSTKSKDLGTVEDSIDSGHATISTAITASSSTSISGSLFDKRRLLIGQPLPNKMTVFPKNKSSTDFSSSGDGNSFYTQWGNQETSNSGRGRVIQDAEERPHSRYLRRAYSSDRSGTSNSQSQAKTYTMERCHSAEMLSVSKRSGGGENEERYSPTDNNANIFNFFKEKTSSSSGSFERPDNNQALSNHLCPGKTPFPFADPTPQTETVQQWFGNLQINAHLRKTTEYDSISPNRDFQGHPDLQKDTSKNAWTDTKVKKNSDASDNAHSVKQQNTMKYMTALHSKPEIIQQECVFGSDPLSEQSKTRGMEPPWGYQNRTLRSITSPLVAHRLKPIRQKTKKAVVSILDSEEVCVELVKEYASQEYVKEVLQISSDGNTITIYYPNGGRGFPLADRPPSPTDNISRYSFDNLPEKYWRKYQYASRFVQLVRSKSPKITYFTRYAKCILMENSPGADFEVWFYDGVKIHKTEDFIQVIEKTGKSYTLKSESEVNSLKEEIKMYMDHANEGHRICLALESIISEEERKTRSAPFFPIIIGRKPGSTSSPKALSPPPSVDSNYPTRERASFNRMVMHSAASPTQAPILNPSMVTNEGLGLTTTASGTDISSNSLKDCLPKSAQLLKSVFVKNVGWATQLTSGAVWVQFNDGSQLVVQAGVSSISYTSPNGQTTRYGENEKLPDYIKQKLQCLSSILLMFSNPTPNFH

ΔTm | SMILES
7.8 °C | CCN(CC)CCNC(=O)c1c(C)[nH]c(/C=C2\C(=O)Nc3ccc(Cl)cc32)c1C [SU-11652]
2.9 °C | COc1cc(O)c2c(c1)oc(=O)c1c3cc(O)c(O)cc3oc21 [WEDELOLACTONE]

SMILES | ΔTm
C=CNC#N | 0.1 °C

Target: Serine/threonine-protein kinase 26 (Homo sapiens) (UniProt Q9P289)
Sequence (Q9P289 2-416 limits assumed): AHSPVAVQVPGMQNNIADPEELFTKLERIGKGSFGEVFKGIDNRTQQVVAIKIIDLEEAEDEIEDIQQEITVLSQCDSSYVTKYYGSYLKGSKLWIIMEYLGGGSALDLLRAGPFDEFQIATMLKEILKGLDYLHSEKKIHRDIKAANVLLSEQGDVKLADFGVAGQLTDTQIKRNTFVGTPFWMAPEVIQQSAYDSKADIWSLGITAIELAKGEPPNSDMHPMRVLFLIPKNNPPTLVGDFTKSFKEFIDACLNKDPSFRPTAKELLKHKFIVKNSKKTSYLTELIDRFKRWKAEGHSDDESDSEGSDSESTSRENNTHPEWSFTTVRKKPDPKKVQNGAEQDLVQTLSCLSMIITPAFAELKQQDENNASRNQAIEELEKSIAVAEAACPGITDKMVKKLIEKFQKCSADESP

ΔTm | SMILES
5.8 °C | CCN(CC)CCNC(=O)c1c(C)[nH]c(/C=C2\C(=O)Nc3ccc(Cl)cc32)c1C [SU-11652]
3.2 °C | COc1cc(O)c2c(c1)oc(=O)c1c3cc(O)c(O)cc3oc21 [WEDELOLACTONE]

SMILES | ΔTm
C=CNC#N | 1.5 °C

Target: Serine/threonine-protein kinase pim-1 (Homo sapiens) (UniProt P11309)
Sequence (P11309 whole entry, looked up): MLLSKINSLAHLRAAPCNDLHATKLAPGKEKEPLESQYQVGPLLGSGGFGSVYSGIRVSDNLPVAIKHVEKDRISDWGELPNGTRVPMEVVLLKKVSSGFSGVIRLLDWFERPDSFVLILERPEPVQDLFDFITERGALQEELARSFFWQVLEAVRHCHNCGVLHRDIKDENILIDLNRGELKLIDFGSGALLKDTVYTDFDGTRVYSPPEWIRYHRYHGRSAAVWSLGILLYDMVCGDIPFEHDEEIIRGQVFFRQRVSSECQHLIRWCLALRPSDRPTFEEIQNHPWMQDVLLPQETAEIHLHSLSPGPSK

ΔTm | SMILES
2.9 °C | CCN(CC)CCNC(=O)c1c(C)[nH]c(/C=C2\C(=O)Nc3ccc(Cl)cc32)c1C [SU-11652]
3.4 °C | COc1cc(O)c2c(c1)oc(=O)c1c3cc(O)c(O)cc3oc21 [WEDELOLACTONE]

SMILES | ΔTm
C=CNC#N | 0.1 °C

Target: T2, Serine/threonine-protein kinase Nek2 (Homo sapiens) (UniProt P51955)
T2 sequence (whole entry): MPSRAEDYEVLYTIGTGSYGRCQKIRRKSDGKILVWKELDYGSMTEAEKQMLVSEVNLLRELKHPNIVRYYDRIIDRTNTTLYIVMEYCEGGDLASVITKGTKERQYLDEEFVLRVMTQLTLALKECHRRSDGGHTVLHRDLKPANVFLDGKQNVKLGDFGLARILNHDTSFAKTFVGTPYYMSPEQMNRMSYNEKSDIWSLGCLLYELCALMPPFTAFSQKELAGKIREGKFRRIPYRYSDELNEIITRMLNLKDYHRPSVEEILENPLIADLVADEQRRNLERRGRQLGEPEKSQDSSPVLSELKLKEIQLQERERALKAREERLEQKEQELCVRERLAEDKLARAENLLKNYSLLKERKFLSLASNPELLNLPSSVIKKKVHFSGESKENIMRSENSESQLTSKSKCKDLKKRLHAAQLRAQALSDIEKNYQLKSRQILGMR

ΔTm | SMILES
5.1 °C | CCN(CC)CCNC(=O)c1c(C)[nH]c(/C=C2\C(=O)Nc3ccc(Cl)cc32)c1C [SU-11652]
2 °C | COc1cc(O)c2c(c1)oc(=O)c1c3cc(O)c(O)cc3oc21 [WEDELOLACTONE]

SMILES | ΔTm
C=CNC#N | 2.1 °C

Target: T3, 3-phosphoinositide-dependent protein kinase 1 (Homo sapiens) (UniProt O15530)
T3 sequence (whole entry): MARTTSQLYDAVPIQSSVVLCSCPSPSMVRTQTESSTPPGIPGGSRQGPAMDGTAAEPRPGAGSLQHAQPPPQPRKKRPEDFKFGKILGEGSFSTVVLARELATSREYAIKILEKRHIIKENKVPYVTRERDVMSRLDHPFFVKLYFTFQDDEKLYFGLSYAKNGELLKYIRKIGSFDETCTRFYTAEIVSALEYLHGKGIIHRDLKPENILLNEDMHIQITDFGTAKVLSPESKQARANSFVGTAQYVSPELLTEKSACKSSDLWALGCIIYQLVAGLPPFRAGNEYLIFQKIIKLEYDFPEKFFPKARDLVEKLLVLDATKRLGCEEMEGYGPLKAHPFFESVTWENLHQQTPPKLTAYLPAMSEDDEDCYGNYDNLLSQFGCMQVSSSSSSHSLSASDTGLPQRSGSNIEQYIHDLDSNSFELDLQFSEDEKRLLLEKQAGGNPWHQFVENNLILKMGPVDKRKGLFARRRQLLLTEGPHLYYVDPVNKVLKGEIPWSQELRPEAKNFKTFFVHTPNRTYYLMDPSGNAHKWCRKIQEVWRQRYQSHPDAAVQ

ΔTm | SMILES
-0.7 °C | CCN(CC)CCNC(=O)c1c(C)[nH]c(/C=C2\C(=O)Nc3ccc(Cl)cc32)c1C [SU-11652]
-0.4 °C | COc1cc(O)c2c(c1)oc(=O)c1c3cc(O)c(O)cc3oc21 [WEDELOLACTONE]

SMILES | ΔTm
C=CNC#N | -0.1 °C

Target: STE20-like serine/threonine-protein kinase (Homo sapiens) (UniProt Q9H2G2)
Sequence (Q9H2G2 whole entry, looked up): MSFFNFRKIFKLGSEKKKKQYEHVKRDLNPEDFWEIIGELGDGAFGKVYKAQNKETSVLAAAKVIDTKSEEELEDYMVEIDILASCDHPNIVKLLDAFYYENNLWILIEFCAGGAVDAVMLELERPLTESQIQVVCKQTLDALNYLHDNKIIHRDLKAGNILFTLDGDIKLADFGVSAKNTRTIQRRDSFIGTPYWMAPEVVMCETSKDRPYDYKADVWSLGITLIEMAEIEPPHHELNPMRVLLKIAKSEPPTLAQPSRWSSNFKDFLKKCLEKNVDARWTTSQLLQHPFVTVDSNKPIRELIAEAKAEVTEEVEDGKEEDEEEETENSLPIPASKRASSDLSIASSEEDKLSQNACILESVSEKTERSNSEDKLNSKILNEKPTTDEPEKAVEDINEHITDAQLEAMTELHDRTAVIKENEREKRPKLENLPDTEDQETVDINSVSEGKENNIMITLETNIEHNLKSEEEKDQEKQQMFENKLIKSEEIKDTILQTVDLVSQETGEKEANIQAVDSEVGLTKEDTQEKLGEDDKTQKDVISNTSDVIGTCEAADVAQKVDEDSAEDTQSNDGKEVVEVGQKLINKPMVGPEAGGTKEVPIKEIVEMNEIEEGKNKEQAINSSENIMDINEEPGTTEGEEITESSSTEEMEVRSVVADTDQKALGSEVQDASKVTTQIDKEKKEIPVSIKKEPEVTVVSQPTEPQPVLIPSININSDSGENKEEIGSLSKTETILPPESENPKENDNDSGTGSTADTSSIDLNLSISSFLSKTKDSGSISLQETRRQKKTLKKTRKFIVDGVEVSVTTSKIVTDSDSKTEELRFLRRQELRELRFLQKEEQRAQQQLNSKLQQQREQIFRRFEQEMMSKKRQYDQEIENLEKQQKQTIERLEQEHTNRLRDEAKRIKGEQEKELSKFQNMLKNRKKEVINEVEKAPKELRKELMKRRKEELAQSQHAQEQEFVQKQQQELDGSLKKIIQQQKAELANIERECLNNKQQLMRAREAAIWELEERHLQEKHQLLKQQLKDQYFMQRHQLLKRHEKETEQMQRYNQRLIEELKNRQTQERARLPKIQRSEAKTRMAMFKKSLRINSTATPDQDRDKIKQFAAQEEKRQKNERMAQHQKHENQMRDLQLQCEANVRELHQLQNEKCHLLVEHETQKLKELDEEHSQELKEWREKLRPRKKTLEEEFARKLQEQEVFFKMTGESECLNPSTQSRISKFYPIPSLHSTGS

ΔTm | SMILES
7.5 °C | CCN(CC)CCNC(=O)c1c(C)[nH]c(/C=C2\C(=O)Nc3ccc(Cl)cc32)c1C [SU-11652]
1.3 °C | COc1cc(O)c2c(c1)oc(=O)c1c3cc(O)c(O)cc3oc21 [WEDELOLACTONE]

SMILES | ΔTm
C=CNC#N | 0.1 °C

Target: Serine/threonine-protein kinase Chk2 (Homo sapiens, UniProt O96017)
Sequence (O96017 whole entry): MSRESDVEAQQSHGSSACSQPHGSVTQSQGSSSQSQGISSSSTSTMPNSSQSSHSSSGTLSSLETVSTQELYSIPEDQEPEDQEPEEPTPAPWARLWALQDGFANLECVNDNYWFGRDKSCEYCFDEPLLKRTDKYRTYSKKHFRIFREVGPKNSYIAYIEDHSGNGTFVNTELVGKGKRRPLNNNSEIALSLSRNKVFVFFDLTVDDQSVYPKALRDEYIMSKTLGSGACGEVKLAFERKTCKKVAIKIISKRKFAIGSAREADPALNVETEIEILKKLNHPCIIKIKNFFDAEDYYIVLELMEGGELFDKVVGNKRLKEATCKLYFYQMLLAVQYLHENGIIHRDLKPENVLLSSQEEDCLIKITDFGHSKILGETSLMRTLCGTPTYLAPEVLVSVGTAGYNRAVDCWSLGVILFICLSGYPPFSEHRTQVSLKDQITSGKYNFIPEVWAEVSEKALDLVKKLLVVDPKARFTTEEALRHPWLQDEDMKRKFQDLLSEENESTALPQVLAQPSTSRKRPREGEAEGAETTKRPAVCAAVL

ΔTm | SMILES
10.3 °C | CCN(CC)CCNC(=O)c1c(C)[nH]c(/C=C2\C(=O)Nc3ccc(Cl)cc32)c1C [SU-11652]
1.8 °C | COc1cc(O)c2c(c1)oc(=O)c1c3cc(O)c(O)cc3oc21 [WEDELOLACTONE]

SMILES | ΔTm
C=CNC#N | 0.1 °C
